Target: Peroxisomal trans-2-enoyl-CoA reductase (Homo sapiens) (UniProt Q9BY49)
Experiment: PECR reductase ligand binding by thermal shift, biophysical, human, DSF, SYPRO orange, NADP+ (AID 392)
Details: recombinant PECR, at 10 µM, protein 2 µM, buffer 10 mM HEPES, pH 7.5, NaCl 150 mM, NADP 200 µM, stronger effect = higher value

Peroxisomal trans-2-enoyl-CoA reductase (Homo sapiens), sequence (Q9BY49 whole entry, looked up): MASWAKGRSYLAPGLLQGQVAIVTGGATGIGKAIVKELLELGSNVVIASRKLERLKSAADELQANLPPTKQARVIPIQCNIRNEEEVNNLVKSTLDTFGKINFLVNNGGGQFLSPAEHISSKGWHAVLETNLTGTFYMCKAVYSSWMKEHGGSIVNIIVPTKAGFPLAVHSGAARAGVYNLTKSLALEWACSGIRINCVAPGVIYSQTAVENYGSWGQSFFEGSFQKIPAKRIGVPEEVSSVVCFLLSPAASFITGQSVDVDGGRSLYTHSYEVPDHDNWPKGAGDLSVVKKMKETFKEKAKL

SMILES	Tm shift [Celsius]
CCc1nnc(NS(=O)(=O)c2ccc(NC(=O)/C=C/c3ccc(F)cc3)cc2)s1	2.4
O=C(C1CCN(S(=O)(=O)c2ccc(Br)s2)CC1)N1CCN(C(c2ccccc2)c2ccc(Cl)cc2)CC1 (stereo not drawn)	2.1
O=C(C1CCC(CNS(=O)(=O)c2ccc(Br)s2)CC1)N1CCN(C(c2ccccc2)c2ccc(Cl)cc2)CC1 (stereo not drawn)	2.3

Now from value to molecule:

Tm shift [Celsius]	SMILES
2.2	NC(=O)c1ccc[n+](C2OC(COP(=O)(O)OP(=O)(O)OCC3OC(n4cnc5c(N)ncnc54)C(OP(=O)(O)O)C3O)C(O)C2O)c1 (stereo not drawn)
2.2	NC(=O)c1ccc[n+](C2OC(COP(=O)(O)OP(=O)(O)OCC3OC(n4cnc5c(N)ncnc54)C(O)C3O)C(O)C2O)c1 (stereo not drawn)
2.2	O=c1oc2cc(O)ccc2c2oc3cc(O)ccc3c12

Same assay, conditions: recombinant PECR, at 10 µM, protein 2 µM, buffer 10 mM HEPES, pH 7.5, NaCl 150 mM, NADP+ 200 µM, stronger effect = higher value

Tm shift [Celsius]	SMILES
12.6	O=C(O[C@@H]1Cc2c(O)cc(O)cc2O[C@H]1c1ccc(O)c(O)c1)c1cc(O)c(O)c(O)c1

Same assay, conditions: recombinant PECR, at 100 µM, protein 2 µM, buffer 10 mM HEPES, pH 7.5, NaCl 150 mM, NADP+ 200 µM, stronger effect = higher value

SMILES	Tm shift [Celsius]
O=C1C2(Cl)C3(Cl)C4(Cl)C(Cl)(Cl)C5(Cl)C3(Cl)C1(Cl)C5(Cl)C24Cl (stereo not drawn)	3.1
O=C1Nc2ccccc2C1=O	6.4
C=CC1=C(C)/C(=C/c2[nH]c(Cc3[nH]c(/C=C4\NC(=O)C(C)=C4C=C)c(C)c3CCC(=O)O)c(CCC(=O)O)c2C)NC1=O	10
CCCCCCCCCC(=O)SCCNC(=O)CCNC(=O)C(O)C(C)(C)COP(=O)(O)OP(=O)(O)OCC1OC(n2cnc3c(N)ncnc32)C(O)C1OP(=O)(O)O (stereo not drawn)	4.1

More lines, now with the values ahead:

Tm shift [Celsius]	SMILES
23.8	C[C@@]12CCC3=C(CCc4cc(O)ccc43)[C@]13C[C@@H]3CC2=C(F)F
3.7	C[C@@]12CCC3=C(CCc4cc(O)ccc43)[C@H]1CCC2=C(F)F

Reference: PubChem BioAssay AID392 (SGCOxCompounds, 2006)
